Assay results from ChEMBL document CHEMBL5236600, “Identification of a Novel Potent CYP4Z1 Inhibitor Attenuating the Stemness of Breast Cancer Cells through Lead Optimization” (J Med Chem, 2022).
The source made the active and inactive calls. The rule behind the calls is not given here.

Columns and labels:
[1] = biological target: T1, Cytochrome P450 4Z1 (Homo sapiens, UniProt Q86W10); test: Inhibition of CYP4Z1 in human HEK293T cells using Luciferin-BE as substrate at 10 uM incubated for 30 mins in presence of NADPH by luminescence based assay relative to control; assay type: ADME, cell-based; settings: HEK-293T, 0.5 h
T1 sequence (Q86W10 whole entry): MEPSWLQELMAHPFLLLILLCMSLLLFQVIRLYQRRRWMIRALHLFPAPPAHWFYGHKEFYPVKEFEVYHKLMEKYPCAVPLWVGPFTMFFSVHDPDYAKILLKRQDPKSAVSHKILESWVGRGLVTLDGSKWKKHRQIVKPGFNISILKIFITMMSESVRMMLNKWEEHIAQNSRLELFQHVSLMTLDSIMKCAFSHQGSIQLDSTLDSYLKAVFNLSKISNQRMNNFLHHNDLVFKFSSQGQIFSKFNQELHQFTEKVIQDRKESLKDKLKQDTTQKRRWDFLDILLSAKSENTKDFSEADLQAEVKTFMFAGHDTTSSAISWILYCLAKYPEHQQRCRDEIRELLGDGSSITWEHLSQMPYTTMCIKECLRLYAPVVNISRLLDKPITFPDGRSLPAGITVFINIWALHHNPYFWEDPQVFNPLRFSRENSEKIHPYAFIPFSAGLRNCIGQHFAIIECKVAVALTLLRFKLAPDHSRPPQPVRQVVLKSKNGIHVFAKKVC

[2] = biological target: T1, Cytochrome P450 4Z1; test: Inhibition of CYP4Z1 in human HEK293T cells using Luciferin-BE as substrate at 1 uM incubated for 30 mins in presence of NADPH by luminescence based assay relative to control; assay type: ADME, cell-based; settings: HEK-293T, 0.5 h
[3] = biological target: T1, Cytochrome P450 4Z1; test: Inhibition of CYP4Z1 in human HEK293T cells using Luciferin-BE as substrate incubated for 30 mins in presence of NADPH by luminescence based assay; assay type: ADME, cell-based
[4] = tested on: MCF7; test: Antitumor activity against human MCF7 cells implanted in BALB/c mouse assessed as decrease in ALDH1A1 expression administered drug pretreated cells subcutaneously and observed after 2 weeks by immunohistochemistry; assay type: functional, cell-based; settings: route sc
[5] = tested on: MCF7; test: Inhibition of cell migration of human MCF7 cells at 0.8 to 51.2 uM incubated for 48 hrs by wound healing assay; assay type: functional, cell-based; settings: dose 0.8-51.2 µM
[6] = Stability in mouse plasma assessed as half life at 40 uM incubated upto 5 hrs by LC-MS/MS analysis; assay type: ADME, cell-free
[7] = tested on: MDA-MB-231; test: Antitumor activity against human MDA-MB-231 cells implanted in BALB/c mouse assessed as change in stem cell frequency administered drug pretreated cells subcutaneously and observed after 2 weeks by colligation test; assay type: functional, cell-based; settings: route sc
[8] = biological target: Cytochrome P450 2C9 (Homo sapiens, UniProt P11712); test: Inhibition of human recombinant CYP2C9 using Luciferin CEE as substrate incubated for 30 mins in presence of NADPH by luminescence based assay; assay type: ADME
Cytochrome P450 2C9, sequence (P11712 whole entry): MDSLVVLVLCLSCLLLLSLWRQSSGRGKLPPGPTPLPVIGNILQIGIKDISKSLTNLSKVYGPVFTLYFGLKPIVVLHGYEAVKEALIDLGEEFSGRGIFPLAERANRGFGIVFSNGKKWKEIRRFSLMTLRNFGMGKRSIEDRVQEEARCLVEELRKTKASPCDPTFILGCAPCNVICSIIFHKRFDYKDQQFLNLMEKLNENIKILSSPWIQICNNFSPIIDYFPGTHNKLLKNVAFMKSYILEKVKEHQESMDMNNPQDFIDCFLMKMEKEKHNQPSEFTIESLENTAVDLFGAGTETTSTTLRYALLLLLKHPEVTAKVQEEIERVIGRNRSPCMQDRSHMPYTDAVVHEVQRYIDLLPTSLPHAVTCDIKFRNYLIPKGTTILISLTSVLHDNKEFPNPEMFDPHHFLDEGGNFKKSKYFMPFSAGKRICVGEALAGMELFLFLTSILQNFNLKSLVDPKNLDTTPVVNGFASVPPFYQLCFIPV

[9] = tested on: MCF7; test: Antitumor activity against human MCF7 cells implanted in BALB/c mouse assessed as reduction in tumor formation ratio administered drug pretreated cells subcutaneously and observed after 2 weeks; assay type: functional, cell-based; settings: route sc
[10] = tested on: MDA-MB-231; test: Antitumor activity against human MDA-MB-231 cells implanted in BALB/c mouse assessed as decrease in Ki67 expression administered drug pretreated cells subcutaneously and observed after 2 weeks by immunohistochemistry; assay type: functional, cell-based; settings: route sc
[11] = tested on: MDA-MB-231; test: Inhibition of cell stemness in human MDA-MB-231 cells assessed as reduction in OCT3 expression at 0.8 to 51.2 uM by western blot analysis; assay type: functional, cell-based; settings: dose 0.8-51.2 µM
[12] = tested on: MCF7; test: Inhibition of cell stemness in human MCF7 cells assessed as reduction in OCT4 expression at 0.8 to 51.2 uM by western blot analysis; assay type: functional, cell-based; settings: dose 0.8-51.2 µM
[13] = tested on: MCF7; test: Antitumor activity against human MCF7 cells implanted in BALB/c mouse assessed as reduction in stem cell frequency administered drug pretreated cells subcutaneously and observed after 2 weeks; assay type: functional, cell-based; settings: route sc
[14] = tested on: MCF7; test: Antitumor activity against human MCF7 cells implanted in BALB/c mouse assessed as decrease in OCT4 expression administered drug pretreated cells subcutaneously and observed after 2 weeks by immunohistochemistry; assay type: functional, cell-based; settings: route sc
[15] = tested on: MCF7; test: Antiproliferative activity against human MCF7 cells assessed as decrease in CD44+/CD24- cell population at 0.8 to 51.2 uM incubated for 30 mins by flow cytometry analysis; assay type: functional, cell-based; settings: dose 0.8-51.2 µM
[16] = tested on: MDA-MB-231; test: Antitumor activity against human MDA-MB-231 cells implanted in BALB/c mouse assessed as decrease in OCT4 expression administered drug pretreated cells subcutaneously and observed after 2 weeks by immunohistochemistry; assay type: functional, cell-based; settings: route sc
[17] = tested on: MCF7; test: Antiproliferative activity against human MCF7 cells assessed as cell growth inhibition incubated for 72 hrs by MTT assay; assay type: functional, cell-based; settings: MCF7, 72 h
[18] = tested on: MCF7; test: Antitumor activity against human MCF7 cells implanted in BALB/c mouse assessed as decrease in Ki67 expression administered drug pretreated cells subcutaneously and observed after 2 weeks by immunohistochemistry; assay type: functional, cell-based; settings: route sc
[19] = tested on: MDA-MB-231; test: Inhibition of cell stemness in human MDA-MB-231 cells assessed as reduction in OCT4 expression at 0.8 to 51.2 uM by western blot analysis; assay type: functional, cell-based; settings: dose 0.8-51.2 µM
[20] = tested on: MDA-MB-231; test: Antitumor activity against human MDA-MB-231 cells implanted in BALB/c mouse assessed as reduction in stem cell frequency administered drug pretreated cells subcutaneously and observed after 2 weeks; assay type: functional, cell-based; settings: route sc
[21] = tested on: MCF7; test: Antiproliferative activity against human MCF7 cells assessed as decrease in spheroid size at 3.2 to 51.2 uM incubated for 10 days; assay type: functional, cell-based; settings: dose 3.2-51.2 µM, time 10.0 day
[22] = tested on: MDA-MB-231; test: Inhibition of cell migration of human MDA-MB-231 cells at 0.8 to 51.2 uM incubated for 24 hrs by wound healing assay; assay type: functional, cell-based; settings: dose 0.8-51.2 µM
[23] = tested on: MCF7; test: Antitumor activity against human MCF7 cells implanted in BALB/c mouse assessed as change in tumor weight administered drug pretreated cells subcutaneously and observed after 2 weeks; assay type: functional, cell-based; settings: route sc
[24] = tested on: MDA-MB-231; test: Antiproliferative activity against human MDA-MB-231 cells assessed as decrease in spheroid size at 3.2 to 51.2 uM incubated for 10 days; assay type: functional, cell-based; settings: dose 3.2-51.2 µM, time 10.0 day
[25] = tested on: MCF7; test: Antitumor activity against human MCF7 cells implanted in BALB/c mouse assessed as change in stem cell frequency administered drug pretreated cells subcutaneously and observed after 2 weeks by colligation test; assay type: functional, cell-based; settings: route sc
[26] = Toxicity in mouse assessed as body weight loss at 2000 mg/kg,po administered for 7 days; assay type: organism-based; settings: in vivo, 168 h, time 7 day
[27] = tested on: MDA-MB-231; test: Antitumor activity against human MDA-MB-231 cells implanted in BALB/c mouse assessed as reduction in tumor formation ratio administered drug pretreated cells subcutaneously and observed after 2 weeks; assay type: functional, cell-based; settings: route sc
[28] = tested on: MDA-MB-231; test: Inhibition of cell stemness in human MDA-MB-231 cells assessed as reduction in ALDH1A1 expression at 0.8 to 51.2 uM by western blot analysis; assay type: functional, cell-based; settings: dose 0.8-51.2 µM
[29] = tested on: MDA-MB-231; test: Inhibition of cell stemness in human MDA-MB-231 cells assessed as reduction in SOX2 expression at 0.8 to 51.2 uM by western blot analysis; assay type: functional, cell-based; settings: dose 0.8-51.2 µM
[30] = tested on: MCF7; test: Inhibition of cell stemness in human MCF7 cells assessed as reduction in P-gP expression at 0.8 to 51.2 uM by western blot analysis; assay type: functional, cell-based; settings: dose 0.8-51.2 µM
[31] = biological target: Cytochrome P450 3A4 (Homo sapiens, UniProt P08684); test: Inhibition of human recombinant CYP3A4 using Luciferin-IPA as substrate incubated for 30 mins in presence of NADPH by luminescence based assay; assay type: ADME
Cytochrome P450 3A4, sequence (P08684 whole entry): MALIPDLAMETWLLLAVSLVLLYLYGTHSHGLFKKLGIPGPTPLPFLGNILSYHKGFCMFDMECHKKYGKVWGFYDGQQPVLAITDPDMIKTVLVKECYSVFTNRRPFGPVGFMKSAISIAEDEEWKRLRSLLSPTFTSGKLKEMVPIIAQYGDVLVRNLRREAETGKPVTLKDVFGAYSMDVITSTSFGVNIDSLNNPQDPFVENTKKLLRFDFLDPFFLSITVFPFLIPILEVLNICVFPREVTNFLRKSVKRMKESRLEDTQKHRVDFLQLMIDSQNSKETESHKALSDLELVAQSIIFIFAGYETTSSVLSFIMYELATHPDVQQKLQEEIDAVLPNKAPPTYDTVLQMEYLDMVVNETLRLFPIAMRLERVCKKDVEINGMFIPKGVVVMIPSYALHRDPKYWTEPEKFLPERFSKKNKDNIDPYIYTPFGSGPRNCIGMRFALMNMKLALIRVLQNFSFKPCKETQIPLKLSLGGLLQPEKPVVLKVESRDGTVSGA

[32] = tested on: MDA-MB-231; test: Antitumor activity against human MDA-MB-231 cells implanted in BALB/c mouse assessed as change in tumor weight administered drug pretreated cells subcutaneously and observed after 2 weeks; assay type: functional, cell-based; settings: route sc
[33] = tested on: MCF7; test: Inhibition of cell stemness in human MCF7 cells assessed as reduction in SOX2 expression at 0.8 to 51.2 uM by western blot analysis; assay type: functional, cell-based; settings: dose 0.8-51.2 µM
[34] = biological target: Cytochrome P450 2D6 (Homo sapiens, UniProt P10635); test: Inhibition of human recombinant CYP2D6 using Luciferin-ME EGE as substrate incubated for 30 mins in presence of NADPH by luminescence based assay; assay type: ADME
Cytochrome P450 2D6, sequence (P10635 whole entry): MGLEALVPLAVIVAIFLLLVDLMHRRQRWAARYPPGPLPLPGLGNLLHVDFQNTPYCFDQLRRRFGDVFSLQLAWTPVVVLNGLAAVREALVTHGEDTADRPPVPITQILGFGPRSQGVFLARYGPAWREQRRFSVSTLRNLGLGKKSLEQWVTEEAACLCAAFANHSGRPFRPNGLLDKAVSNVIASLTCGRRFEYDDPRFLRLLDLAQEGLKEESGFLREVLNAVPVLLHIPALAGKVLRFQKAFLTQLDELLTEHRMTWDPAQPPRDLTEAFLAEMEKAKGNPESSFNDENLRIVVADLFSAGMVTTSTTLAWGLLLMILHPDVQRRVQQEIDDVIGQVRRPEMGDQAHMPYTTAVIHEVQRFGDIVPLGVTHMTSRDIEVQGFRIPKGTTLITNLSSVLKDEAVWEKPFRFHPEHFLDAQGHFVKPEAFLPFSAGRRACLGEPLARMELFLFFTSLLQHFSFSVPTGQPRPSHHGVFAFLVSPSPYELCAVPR

[35] = tested on: MDA-MB-231; test: Antiproliferative activity against human MDA-MB-231 cells assessed as decrease in spheroid number at 3.2 to 51.2 uM incubated for 10 days; assay type: functional, cell-based; settings: dose 3.2-51.2 µM, time 10.0 day
[36] = tested on: MCF7; test: Inhibition of cell invasion of human MCF7 cells at 0.8 to 51.2 uM incubated for 48 hrs by transwell invasion assay; assay type: functional, cell-based; settings: dose 0.8-51.2 µM
[37] = tested on: MCF7; test: Inhibition of cell stemness in human MCF7 cells assessed as reduction in ALDH1A1 expression at 0.8 to 51.2 uM by western blot analysis; assay type: functional, cell-based; settings: dose 0.8-51.2 µM
[38] = tested on: MDA-MB-231; test: Inhibition of cell stemness in human MDA-MB-231 cells assessed as reduction in P-gP expression at 0.8 to 51.2 uM by western blot analysis; assay type: functional, cell-based; settings: dose 0.8-51.2 µM
[39] = tested on: MDA-MB-231; test: Antitumor activity against human MDA-MB-231 cells implanted in BALB/c mouse assessed as decrease in ALDH1A1 expression administered drug pretreated cells subcutaneously and observed after 2 weeks by immunohistochemistry; assay type: functional, cell-based; settings: route sc
[40] = tested on: MDA-MB-231; test: Antiproliferative activity against human MDA-MB-231 cells assessed as cell growth inhibition incubated for 72 hrs by MTT assay; assay type: functional, cell-based; settings: MDA-MB-231, 72 h
[41] = tested on: MDA-MB-231; test: Antiproliferative activity against human MDA-MB-231 cells assessed as decrease in CD44+/CD24- cell population at 0.8 to 51.2 uM incubated for 30 mins by flow cytometry analysis; assay type: functional, cell-based; settings: dose 0.8-51.2 µM
[42] = tested on: MCF7; test: Inhibition of cell stemness in human MCF7 cells assessed as reduction in OCT3 expression at 0.8 to 51.2 uM by western blot analysis; assay type: functional, cell-based; settings: dose 0.8-51.2 µM
[43] = tested on: MCF7; test: Inhibition of cell stemness in human MCF7 cells assessed as reduction in Nanog expression at 0.8 to 51.2 uM by western blot analysis; assay type: functional, cell-based; settings: dose 0.8-51.2 µM
[44] = Stability in mouse liver microsomes assessed as half life at 1 uM incubated upto 60 mins in presence of NADPH by LC-MS/MS analysis; assay type: ADME, Microsome
[45] = tested on: MDA-MB-231; test: Inhibition of cell stemness in human MDA-MB-231 cells assessed as reduction in Nanog expression at 0.8 to 51.2 uM by western blot analysis; assay type: functional, cell-based; settings: dose 0.8-51.2 µM
[46] = tested on: MDA-MB-231; test: Inhibition of cell invasion of human MDA-MB-231 cells at 0.8 to 51.2 uM incubated for 24 hrs by transwell invasion assay; assay type: functional, cell-based; settings: dose 0.8-51.2 µM
[47] = tested on: MCF7; test: Antiproliferative activity against human MCF7 cells assessed as decrease in spheroid number at 3.2 to 51.2 uM incubated for 10 days; assay type: functional, cell-based; settings: dose 3.2-51.2 µM, time 10.0 day

CCCCc1ccc(N/C=N/O)cc1
inhibition at 10 µM [1]: 84.3%
inhibition at 1 µM [2]: 54.2%

O=C(O)Cc1ccc(N/C=N/O)cc1
inhibition at 10 µM [1]: 54.3%
inhibition at 1 µM [2]: 36.5%

CCOC(=O)Cc1ccc(N/C=N/O)cc1
inhibition at 10 µM [1]: 89.1%
IC50 [3]: 89.7 nM
inhibition at 1 µM [2]: 80.4%

CCc1ccc(N/C=N/O)cc1
inhibition at 10 µM [1]: 72.8%
inhibition at 1 µM [2]: 33.6%

CCOC(=O)CCCc1ccc(N/C=N/O)cc1
Activity [4]: Active
inhibition [5]: Dose-Dependent Effect
half-life at 40 µM [6]: 24.6 min
Activity [7]: Active
IC50 [8]: > 10000 nM
Activity [9]: Active
Activity [10]: Active
inhibition [11]: Dose-Dependent Effect
inhibition [12]: Dose-Dependent Effect
Activity [13]: Active
Activity [14]: Active
Activity [15]: Dose-Dependent Effect
Activity [16]: Active
IC50 [17]: 483 nM
Activity [18]: Active
inhibition [19]: Dose-Dependent Effect
Activity [20]: Active
Activity [21]: Dose-Dependent Effect
inhibition [22]: Dose-Dependent Effect
Activity [23]: inactive
Activity [24]: Dose-Dependent Effect
Activity [25]: Active
Activity [26]: Non-Toxic
Activity [27]: Active
inhibition [28]: Dose-Dependent Effect
inhibition [29]: Dose-Dependent Effect
inhibition [30]: Dose-Dependent Effect
IC50 [31]: > 10000 nM
Activity [32]: inactive
inhibition [33]: Dose-Dependent Effect
IC50 [34]: > 10000 nM
Activity [35]: Dose-Dependent Effect
inhibition [36]: Active
inhibition [37]: Dose-Dependent Effect
inhibition [38]: Dose-Dependent Effect
Activity [39]: Active
IC50 [40]: 483 nM
Activity [41]: Dose-Dependent Effect
inhibition [42]: Dose-Dependent Effect
inhibition [43]: Dose-Dependent Effect
half-life at 1 µM [44]: 12.8 min
inhibition [45]: Dose-Dependent Effect
inhibition [46]: Active
Activity [47]: Dose-Dependent Effect
